# Source: ChEMBL document CHEMBL5352493, “Dual inhibitors of ASK1 and PDK1 kinases: Design, synthesis, molecular docking and mechanism studies of N-benzyl pyridine-2-one containing derivatives as anti-fibrotic agents” (Eur J Med Chem, 2023)
# pIC50: −log10 of the molar value. Active and inactive are the calls of the source. No cut-off for these calls is given here.
# Tests used:
# [1] = Antiproliferative against rat NRK-49F cells measured after 48 hrs by CCK8 assay; type: toxicity, cell-based
# [2] = Antiproliferative against HLF1 cells measured after 48 hrs by CCK8 assay; type: toxicity, cell-based; details: human, HFL1 cells (description prints HLF1)
# [3] = Antiproliferative against rat HSC-T6 cells measured after 48 hrs by CCK8 assay; type: toxicity, cell-based
# [4] = biological target: T1, Mitogen-activated protein kinase kinase kinase 5 (Homo sapiens, UniProt Q99683); test: Inhibition of human recombinant ASK1 using MBP as substrate preincubated for 1 hr followed by reagent addition incubated for 40 mins by ATP-Glo kinase assay
# T1 sequence (Q99683 whole entry): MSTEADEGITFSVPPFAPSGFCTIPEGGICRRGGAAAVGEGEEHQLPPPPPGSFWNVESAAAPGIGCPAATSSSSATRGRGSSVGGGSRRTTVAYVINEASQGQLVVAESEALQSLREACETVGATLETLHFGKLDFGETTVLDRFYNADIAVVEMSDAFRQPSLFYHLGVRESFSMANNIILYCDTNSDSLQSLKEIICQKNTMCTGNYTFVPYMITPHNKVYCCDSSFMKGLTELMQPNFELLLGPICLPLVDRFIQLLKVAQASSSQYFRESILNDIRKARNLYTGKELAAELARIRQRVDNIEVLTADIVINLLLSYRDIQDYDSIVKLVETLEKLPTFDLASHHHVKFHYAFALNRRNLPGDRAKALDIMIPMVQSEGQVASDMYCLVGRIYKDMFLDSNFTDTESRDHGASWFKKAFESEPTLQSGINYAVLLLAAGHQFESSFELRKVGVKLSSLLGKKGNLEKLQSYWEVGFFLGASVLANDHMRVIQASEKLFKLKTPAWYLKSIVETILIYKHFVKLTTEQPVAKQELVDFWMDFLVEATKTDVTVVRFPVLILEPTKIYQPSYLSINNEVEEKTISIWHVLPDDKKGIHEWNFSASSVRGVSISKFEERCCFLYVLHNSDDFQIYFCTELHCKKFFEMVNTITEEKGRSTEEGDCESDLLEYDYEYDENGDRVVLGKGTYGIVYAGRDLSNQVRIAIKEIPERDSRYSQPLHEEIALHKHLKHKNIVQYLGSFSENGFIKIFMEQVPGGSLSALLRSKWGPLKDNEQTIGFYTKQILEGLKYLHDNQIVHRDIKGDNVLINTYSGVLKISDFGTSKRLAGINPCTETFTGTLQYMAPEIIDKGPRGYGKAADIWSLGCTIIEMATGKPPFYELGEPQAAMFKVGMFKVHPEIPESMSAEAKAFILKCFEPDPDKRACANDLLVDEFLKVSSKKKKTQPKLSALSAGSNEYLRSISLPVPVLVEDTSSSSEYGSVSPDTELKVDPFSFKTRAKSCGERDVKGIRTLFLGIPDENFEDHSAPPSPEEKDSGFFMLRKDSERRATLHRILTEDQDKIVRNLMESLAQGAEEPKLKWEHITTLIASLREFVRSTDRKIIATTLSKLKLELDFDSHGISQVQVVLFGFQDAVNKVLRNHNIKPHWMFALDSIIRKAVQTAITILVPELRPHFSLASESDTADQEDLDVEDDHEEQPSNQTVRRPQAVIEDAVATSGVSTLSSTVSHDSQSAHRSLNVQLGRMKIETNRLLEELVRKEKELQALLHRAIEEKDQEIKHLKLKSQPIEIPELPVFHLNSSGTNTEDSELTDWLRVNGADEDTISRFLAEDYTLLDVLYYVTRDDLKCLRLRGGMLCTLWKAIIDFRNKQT
# [5] = Antiproliferative against human BEAS-2B cells measured after 48 hrs by CCK8 assay; type: toxicity, cell-based
# [6] = tested on: HFL1; test: Downregulation of phosphorylated ASK1 in TGF-beta1 induced HFL1 cells at 5 to 10 uM for 24 hrs by Western blotting analysis; type: functional, cell-based; details: Homo sapiens, dose 5-10 µM
# [7] = tested on: HFL1; test: Downregulation of phosphorylated p38 in TGF-beta1 induced HFL1 cells at 5 to 10 uM for 24 hrs by Western blotting analysis; type: functional, cell-based; details: Homo sapiens, dose 5-10 µM
# [8] = tested on: HFL1; test: Downregulation of phosphorylated JNK in TGF-beta1 induced HFL1 cells at 5 to 10 uM for 24 hrs by Western blotting analysis; type: functional, cell-based; details: Homo sapiens, dose 5-10 µM
# [9] = tested on: HFL1; test: Downregulation of phosphorylated PDK1 in TGF-beta1 induced HFL1 cells at 5 to 10 microM for 24 hrs by Western blotting analysis; type: functional, cell-based; details: Homo sapiens, dose 5-10 µM
# [10] = tested on: HFL1; test: Downregulation of phosphorylated Akt in TGF-beta1 induced HFL1 cells at 10 microM for 24 hrs by Western blotting analysis; type: functional, cell-based; details: Homo sapiens
# [11] = tested on: HFL1; test: Antifibrotic activity in TGF-beta1 induced HLF1 cells assessed as decrease in alpha SMA expression level measured at 5 to 10 uM after 24 hrs by Western blotting analysis; type: functional, cell-based; details: Homo sapiens, dose 5-10 µM
# [12] = tested on: HFL1; test: Antifibrotic activity in TGF-beta1 induced HLF1 cells assessed as decrease in collagen-I expression level measured at 5 to 10 uM after 24 hrs by Western blotting analysis; type: functional, cell-based; details: Homo sapiens, dose 5-10 µM
# [13] = tested on: HFL1; test: Antifibrotic activity in TGF-beta1 induced HLF1 cells assessed as decrease in phosphorylated smad2 level measured at 5 to 10 uM after 24 hrs by Western blotting analysis; type: functional, cell-based; details: Homo sapiens, dose 5-10 µM
# [14] = tested on: HFL1; test: Antifibrotic activity in TGF-beta1 induced HLF1 cells assessed as decrease in phosphorylated smad3 level measured at 5 to 10 uM after 24 hrs by Western blotting analysis; type: functional, cell-based; details: Homo sapiens, dose 5-10 µM
# [15] = tested on: HFL1; test: Induction of apoptosis in HLF1 cells assessed as decrease in antiapoptotic Bcl-2 protein at 5 to 10 uM for 24 hrs by Western blotting analysis; type: functional, cell-based; details: Homo sapiens, dose 5-10 µM
# [16] = tested on: HFL1; test: Induction of apoptosis in HLF1 cells assessed as viable cells at 5 uM incubated for 24 hrs measured by annexinV-FITC/PI based flow cytometric analysis (reference value: 88.3%); type: functional; details: Homo sapiens, read-out: Activity
# [17] = tested on: HFL1; test: Induction of apoptosis in HLF1 cells assessed as early apoptotic cells at 5 uM incubated for 24 hrs measured by annexinV-FITC/PI based flow cytometric analysis (reference value: 11.6%); type: functional, Homo sapiens
# [18] = tested on: HFL1; test: Induction of apoptosis in HLF1 cells assessed as late apoptotic cells at 5 uM incubated for 24 hrs measured by annexinV-FITC/PI based flow cytometric analysis (reference value: 0.08%); type: functional, Homo sapiens
# [19] = tested on: HFL1; test: Induction of apoptosis in HLF1 cells assessed as necrotic cells at 5 uM incubated for 24 hrs measured by annexinV-FITC/PI based flow cytometric analysis (reference value: 0%); type: functional, Homo sapiens
# [20] = tested on: HFL1; test: Induction of apoptosis in HLF1 cells assessed as viable cells at 10 uM incubated for 24 hrs measured by annexinV-FITC/PI based flow cytometric analysis (reference value: 88.3%); type: functional; details: Homo sapiens, read-out: Activity
# [21] = tested on: HFL1; test: Induction of apoptosis in HLF1 cells assessed as early apoptotic cells at 10 uM incubated for 24 hrs measured by annexinV-FITC/PI based flow cytometric analysis (reference value: 11.6%); type: functional, Homo sapiens
# [22] = tested on: HFL1; test: Induction of apoptosis in HLF1 cells assessed as late apoptotic cells at 10 uM incubated for 24 hrs measured by annexinV-FITC/PI based flow cytometric analysis (reference value: 0.08%); type: functional, Homo sapiens
# [23] = tested on: HFL1; test: Induction of apoptosis in HLF1 cells assessed as necrotic cells at 10 uM incubated for 24 hrs measured by annexinV-FITC/PI based flow cytometric analysis (reference value: 0%); type: functional, Homo sapiens
# [24] = tested on: HFL1; test: Induction of apoptosis in HLF1 cells assessed as viable cells at 15 uM incubated for 24 hrs measured by annexinV-FITC/PI based flow cytometric analysis (reference value: 88.3%); type: functional; details: Homo sapiens, read-out: Activity
# [25] = tested on: HFL1; test: Induction of apoptosis in HLF1 cells assessed as early apoptotic cells at 15 uM incubated for 24 hrs measured by annexinV-FITC/PI based flow cytometric analysis (reference value: 11.6%); type: functional, Homo sapiens
# [26] = tested on: HFL1; test: Induction of apoptosis in HLF1 cells assessed as late apoptotic cells at 15 uM incubated for 24 hrs measured by annexinV-FITC/PI based flow cytometric analysis (reference value: 0.08%); type: functional, Homo sapiens
# [27] = tested on: HFL1; test: Induction of apoptosis in HLF1 cells assessed as necrotic cells at 15 uM incubated for 24 hrs measured by annexinV-FITC/PI based flow cytometric analysis (reference value: 0%); type: functional, Homo sapiens
compound,measurement,setting,value
CC(C)n1cc(-c2cc(C(=O)Nc3cccc(-c4nncn4C4CC4)n3)c(=O)n(Cc3ccccc3F)c2)cn1,IC50 at 48 h,[1],14.8 µM
same,IC50 at 48 h,[2],9.2 µM
same,IC50 at 48 h,[3],25 µM
same,pIC50,[4],8.04
same,IC50 at 48 h,[5],33 µM
same,Activity,[6],Active
same,Activity,[7],Active
same,Activity,[8],Active
same,Activity,[9],Dose-Dependent Effect
same,Activity,[10],Active
same,Activity,[11],Dose-Dependent Effect
same,Activity,[12],Dose-Dependent Effect
same,Activity,[13],Active
same,Activity,[14],Active
same,Activity,[15],Active
same,viability at 5 µM,[16],80.5%
same,Activity,[17],19.4%
same,Activity,[18],0.092%
same,Activity,[19],0%
same,viability at 10 µM,[20],74.3%
same,Activity,[21],25.6%
same,Activity,[22],0.034%
same,Activity,[23],0%
same,viability at 15 µM,[24],69.9%
same,Activity,[25],30%
same,Activity,[26],0.069%
same,Activity,[27],0%
